Converted amounts (≈) assume the structure as drawn.

In assay [1] the target is T1, Prostaglandin G/H synthase 1 (Ovis aries, UniProt P05979).
T1 sequence (P05979 whole entry): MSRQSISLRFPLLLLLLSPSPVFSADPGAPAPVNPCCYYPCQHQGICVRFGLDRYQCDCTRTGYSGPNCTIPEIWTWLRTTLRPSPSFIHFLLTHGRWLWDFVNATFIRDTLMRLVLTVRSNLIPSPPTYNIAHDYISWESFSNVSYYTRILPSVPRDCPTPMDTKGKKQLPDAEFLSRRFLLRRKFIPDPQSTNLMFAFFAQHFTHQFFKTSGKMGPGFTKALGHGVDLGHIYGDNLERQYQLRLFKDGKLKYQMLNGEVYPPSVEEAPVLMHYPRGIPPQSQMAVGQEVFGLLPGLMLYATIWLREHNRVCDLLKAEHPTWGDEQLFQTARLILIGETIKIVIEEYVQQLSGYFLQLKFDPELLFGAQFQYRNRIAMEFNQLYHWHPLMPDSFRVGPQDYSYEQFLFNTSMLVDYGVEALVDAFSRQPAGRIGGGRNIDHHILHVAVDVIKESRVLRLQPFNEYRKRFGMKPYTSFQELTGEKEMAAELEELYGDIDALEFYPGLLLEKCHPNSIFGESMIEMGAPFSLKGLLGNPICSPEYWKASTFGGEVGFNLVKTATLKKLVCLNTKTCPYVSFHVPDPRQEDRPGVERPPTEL
Description: Inhibition of ovine COX-1.

The target of assay [2] is T2, Prostaglandin G/H synthase 2 (Homo sapiens, UniProt P35354).
T2 sequence (P35354 whole entry): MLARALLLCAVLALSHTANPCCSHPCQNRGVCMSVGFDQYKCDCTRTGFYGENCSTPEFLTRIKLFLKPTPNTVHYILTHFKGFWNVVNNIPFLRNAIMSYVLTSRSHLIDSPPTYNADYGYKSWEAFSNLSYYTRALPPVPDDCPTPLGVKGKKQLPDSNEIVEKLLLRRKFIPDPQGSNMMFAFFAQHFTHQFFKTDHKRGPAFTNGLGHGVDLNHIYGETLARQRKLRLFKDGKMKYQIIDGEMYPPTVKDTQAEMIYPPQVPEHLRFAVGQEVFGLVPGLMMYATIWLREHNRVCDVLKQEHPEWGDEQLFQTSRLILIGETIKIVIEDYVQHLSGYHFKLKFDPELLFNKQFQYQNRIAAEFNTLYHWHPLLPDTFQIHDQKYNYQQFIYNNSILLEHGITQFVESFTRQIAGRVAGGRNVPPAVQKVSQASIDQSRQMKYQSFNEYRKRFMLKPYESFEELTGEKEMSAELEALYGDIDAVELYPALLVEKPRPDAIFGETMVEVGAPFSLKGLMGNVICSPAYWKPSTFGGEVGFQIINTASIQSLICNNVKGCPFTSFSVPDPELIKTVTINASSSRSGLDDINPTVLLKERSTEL
Description: Inhibition of human recombinant COX-2.

A further assay deals with Klebsiella pneumoniae. Description: microbe, parasite or virus in culture. As to conditions: ATCC 43816, 20 h.
The next assay relates to Escherichia coli. Description: microbe, parasite or virus in culture. As to conditions: ATCC 8739, 20 h.
The subject of the next assay is Bacillus cereus. Description: microbe, parasite or virus in culture. As to conditions: ATCC 14579.
Another assay has as its system Staphylococcus aureus. Description: microbe, parasite or virus in culture. As to conditions: NCTC 13616, 20 h.
Another assay has as its system Bacillus subtilis. Description: microbe, parasite or virus in culture. The settings on record: ATCC 6633, 20 h.
In the next assay the test system is Proteus vulgaris. Description: microbe, parasite or virus in culture. The settings on record: ATCC 13315, 24 h.

Description for Bacillus cereus: Antibacterial activity against Bacillus cereus ATCC 14579 assessed as reduction in bacterial growth incubated for 18 to 24 hrs by broth microdilution method
Description for Bacillus subtilis: Antibacterial activity against Bacillus subtilis ATCC 6633 assessed as bacterial growth inhibition measured for 20 hrs by micro-broth dilution method
Description for Escherichia coli: Antimicrobial activity against Escherichia coli ATCC 8739 assessed as reduction in bacterial growth incubated for 20 hrs by broth microdilution analysis
Description for Klebsiella pneumoniae: Antimicrobial activity against Klebsiella pneumoniae ATCC 43816 assessed as reduction in bacterial growth incubated for 20 hrs by broth microdilution analysis
Description for Proteus vulgaris: Antimicrobial activity against Proteus vulgaris ATCC 13315 assessed as microbial growth inhibition incubated for 24 hrs by broth microdilution method
Description for Staphylococcus aureus: Antibacterial activity against methicillin-resistant Staphylococcus aureus NCTC 13616 assessed as reduction in bacterial growth incubated for 20 hrs by broth micro-dilution method

Regarding `Cc1ccc(/C=C/C(=O)c2cc(-n3cc(-c4ccccc4)nn3)ccc2O)cc1`, the IC50 (commonly the concentration that inhibits the measured activity by half) in assay [1] amounted to 7.4 µM; in assay [2], 37 nM.
Regarding `CC(C)Cc1ccc(C(C)C(=O)c2ccc(OCc3cn(C4CCCCC4)nn3)cc2O)cc1` (stereo unspecified), the MIC against Klebsiella pneumoniae, in the assay on Escherichia coli, in the assay on Bacillus cereus, against Staphylococcus aureus, in the assay on Bacillus subtilis and in the assay with Proteus vulgaris was 12 µg/mL (≈ 26 µM) throughout.
As to `CCCCCCn1cc(COc2ccc(C(=O)C(C)c3ccc(CC(C)C)cc3)c(O)c2)nn1` (stereo unspecified), the MIC with Klebsiella pneumoniae, against Escherichia coli, against Bacillus cereus, in the assay on Staphylococcus aureus, in the assay with Bacillus subtilis and with Proteus vulgaris was 12 µg/mL (≈ 25.9 µM) each time.
On to `O=C(/C=C/C=C/c1ccccc1)c1cc(-n2cc(CN3C(=O)C(=O)c4ccccc43)nn2)ccc1O`, for which the IC50 turned out to be 7.4 µM in assay [1] and 37 nM in assay [2].
In the case of `O=C(/C=C/C=C/c1ccccc1)c1cc(-n2cc(-c3ccccc3)nn2)ccc1O`, the IC50 in assay [1] stood at 7.4 µM; in assay [2] it was 37 nM.
For `O=C(/C=C/c1ccc(Br)cc1)c1cc(-n2cc(-c3ccccc3)nn2)ccc1O`, in that order: 7.4 µM and 37 nM.
For `COc1cc(/C=C/C(=O)c2cc(-n3cc(-c4ccccc4)nn3)ccc2O)cc(OC)c1OC`, the IC50 in assay [1] was 7.4 µM; in assay [2] it was 37 nM.
Take `CN(C)C(=O)c1ccc(/C=C/C(=O)c2cc(-n3cc(-c4ccccc4)nn3)ccc2O)cc1`: the IC50 in assay [1] turned out to be 7.4 µM; in assay [2], 37 nM.
For `O=C(/C=C/c1ccccc1)c1cc(-n2cc(CN3C(=O)C(=O)c4ccccc43)nn2)ccc1O`, in that order: 7.4 µM and 37 nM.
As to `Cc1ccc(/C=C/C(=O)c2cc(-n3cc(CN4C(=O)C(=O)c5ccccc54)nn3)ccc2O)cc1`, the IC50 turned out to be 7.4 µM in assay [1] and 37 nM in assay [2].
The like results for `COc1ccc(/C=C/C(=O)c2cc(-n3cc(-c4ccccc4)nn3)ccc2O)cc1` were, in that order, 7.4 µM and 37 nM.
The like results for `CN(C)C(=O)c1ccc(/C=C/C(=O)c2cc(-n3cc(CN4C(=O)C(=O)c5ccccc54)nn3)ccc2O)cc1` were, in that order, 7.4 µM and 37 nM.
Take `O=C(/C=C/c1ccc(O)cc1)c1cc(-n2cc(CN3C(=O)C(=O)c4ccccc43)nn2)ccc1O`: the results for the IC50 in assay [1] and in assay [2] were 7.4 µM and 37 nM, respectively.
The like results for `COc1ccc(/C=C/C(=O)c2cc(-n3cc(CN4C(=O)C(=O)c5ccccc54)nn3)ccc2O)cc1OC` were, in that order, 7.4 µM and 37 nM.
In assay [1], `COc1ccc(/C=C/C(=O)c2cc(-n3cc(CN4C(=O)C(=O)c5ccccc54)nn3)ccc2O)cc1` showed an IC50 of 7.4 µM.
Turning to `O=C(/C=C/c1ccc(Cl)cc1)c1cc(-n2cc(-c3ccccc3)nn2)ccc1O`, the figures for the IC50 in assay [1] and in assay [2] were 7.4 µM and 37 nM, respectively.
Turning to `COc1cc(/C=C/C(=O)c2cc(-n3cc(CN4C(=O)C(=O)c5ccccc54)nn3)ccc2O)cc(OC)c1OC`, the IC50 in assay [1] stood at 7.4 µM; in assay [2] it was 37 nM.
For `O=C(/C=C/c1ccc(Cl)cc1)c1cc(-n2cc(CN3C(=O)C(=O)c4ccccc43)nn2)ccc1O`, in that order: 7.4 µM and 37 nM.
The like results for `O=C(/C=C/c1ccccc1)c1cc(-n2cc(-c3ccccc3)nn2)ccc1O` were, in that order, 7.4 µM and 37 nM.
The like results for `COc1ccc(/C=C/C(=O)c2cc(-n3cc(-c4ccccc4)nn3)ccc2O)cc1OC` were, in that order, 7.4 µM and 37 nM.
For `O=C(/C=C/c1ccc(Br)cc1)c1cc(-n2cc(CN3C(=O)C(=O)c4ccccc43)nn2)ccc1O`, the values for the IC50 in assay [1] and in assay [2] were 7.4 µM and 37 nM, respectively.
For `O=C(/C=C/c1ccc(O)cc1)c1cc(-n2cc(-c3ccccc3)nn2)ccc1O`, in that order: 7.4 µM and 37 nM.
